35 compounds from patent US8623871B2, “Substituted biaryl compounds for inflammation and immune-related uses” (Synta Pharmaceuticals Corp., priority 2006, dated 2014) can be followed below.

Structures are written as SMILES. Where a name gives a salt, the structure may show the parent alone. Where only a bound is given, the exact number is not on record here.

The test has as its system IL-2 production. The test is described as follows: Inhibition of IL-2 production in PHA-activated Jurkat cells (ELISA). Type of test: cell-based. To be noted: Homo sapiens, 20 h, PHA 2.5 μg/mL, IL-2 ELISA. The protocol:
Jurkat cells were placed in a 96 well plate (0.5 million cells per well in 1% FBS medium) then a test compound of this invention was added at different concentrations. After 10 minutes, the cells were activated with PHA (final concentration 2.5 μg/mL) and incubated for 20 hours at 37° C. under CO2. The final volume was 200 μL. Following incubation, the cells were centrifuged and the supernatants collected and stored at −70° C. prior to assaying for IL-2 production. A commercial ELISA kit (IL-2 Eli-pair, Diaclone Research, Besancon, France) was used to detect production of IL-2, from which dose response curves were obtained. The IC50 value was calculated as the concentration at which 50% of maximum IL-2 production after stimulation was inhibited versus a non-stimulation control.
For orientation: ELISA stands for enzyme-linked immunosorbent assay.
The IC50 is the concentration that gives 50% inhibition. Regarding `Cc1ccc(-c2ncco2)cc1-c1ccc(NC(=O)[C@@H](N)C(C)C)cc1` (stereo in doubt) [Compound 123, 2-Amino-3-methyl-N-(2′-methyl-5′-oxazol-2-yl-biphenyl-4-yl)-butyramide], the 50% inhibitory concentration (IC50) is greater than 500 nM.
Under `CC(=O)Nc1ccc(-c2cc(-c3ncco3)ccc2C)cc1` [Compound 1, N-(2′-Methyl-5′-oxazol-2-yl-biphenyl-4-yl)-acetamide] stands greater than 500 nM; under `CCC(=O)Nc1ccc(-c2cc(-c3ncco3)ccc2C)cc1` [Compound 2, N-(2′-Methyl-5′-oxazol-2-yl-biphenyl-4-yl)-propionamide], 50 to 100 nM.
Under `CCCC(=O)Nc1ccc(-c2cc(-c3ncco3)ccc2C)cc1` [Compound 3, N-(2′-Methyl-5′-oxazol-2-yl-biphenyl-4-yl)-butyramide] stands less than 20 nM.
As for `Cc1ccc(-c2ncco2)cc1-c1ccc(NC(=O)C(C)C)cc1` [Compound 4, N-(2′-Methyl-5′-oxazol-2-yl-biphenyl-4-yl)-isobutyramide], the figure is less than 20 nM; as for `Cc1ccc(-c2ncco2)cc1-c1ccc(NC(=O)C2CC2)cc1` [Compound 5, Cyclopropanecarboxylic acid (2′-methyl-5′-oxazol-2-yl-biphenyl-4-yl)-amide], 50 to 100 nM; as for `Cc1ccc(-c2ncco2)cc1-c1ccc(NC(=O)C2CCC2)cc1` [Compound 6, Cyclobutanecarboxylic acid (2′-methyl-5′-oxazol-2-yl-biphenyl-4-yl)-amide], 20 to 50 nM.
For the compound `Cc1ccc(-c2ncco2)cc1-c1ccc(NC(=O)C2CCCCN2C)cc1` (centres unmarked) [Compound 8, 1-Methyl-piperidine-2-carboxylic acid (2′-methyl-5′-oxazol-2-yl-biphenyl-4-yl)-amide], the concentration for half-maximal inhibition (IC50) lay in the range of 100 to 500 nM.
As for `CCC(C(=O)Nc1ccc(-c2cc(-c3ncco3)ccc2C)cc1)N(C)C` (centres unmarked) [Compound 9, 2-Dimethylamino-N-(2′-methyl-5′-oxazol-2-yl-biphenyl-4-yl)-butyramide Hydrochloride], the figure is greater than 500 nM; as for `Cc1ccc(-c2ncco2)cc1-c1ccc(NC(=O)C(N)CC(C)C)cc1` (centres unmarked) [Compound 10, 2-Amino-4-methyl-pentanoic acid (2′-methyl-5′-oxazol-2-yl-biphenyl-4-yl)-amide], greater than 500 nM; as for `Cc1ccc(-c2ncco2)cc1-c1ccc(NC(=O)CN)cc1` [Compound 11, 2-Amino-N-(2′-methyl-5′-oxazol-2-yl-biphenyl-4-yl)-acetamide], greater than 1000 nM.
Under `Cc1ccc(-c2ncco2)cc1-c1ccc(NC(=O)Cc2ccc(Cl)cc2)cc1` [Compound 35, 2-(4-Chloro-phenyl)-N-(2′-methyl-5′-oxazol-2-yl-biphenyl-4-yl)-acetamide] stands 100 to 500 nM; under `Cc1ccc(-c2ncco2)cc1-c1ccc(NC(=O)/C=C/c2ccccc2)cc1` [Compound 48, N-(2′-Methyl-5′-oxazol-2-yl-biphenyl-4-yl)-3-phenyl-acrylamide], 100 to 500 nM; under `Cc1ccc(-c2ncco2)cc1-c1ccc(NC(=O)C2CCCCC2)cc1` [Compound 106, N-(2′-methyl-5′-(oxazol-2-yl)biphenyl-4-yl)cyclohexanecarboxamide], less than 20 nM.
As for `O=C(Nc1ccc(-c2cc(C(F)(F)F)ccc2Cl)cc1)C1CCCCC1` [Compound 107, N-(2′-chloro-5′-(trifluoromethyl)biphenyl-4-yl)cyclohexanecarboxamide], the figure is less than 20 nM; as for `O=C(Nc1ccc(-c2cc(C(F)(F)F)ccc2Cl)cc1)C1CCCC1` [Compound 108, N-(2′-chloro-5′-(trifluoromethyl)biphenyl-4-yl)cyclopentanecarboxamide], 20 to 50 nM; as for `Cc1ccc(-c2ncco2)cc1-c1ccc(NC(=S)Cc2ccc(F)cc2F)cc1` [Compound 124, 2-(2,4-Difluoro-phenyl)-N-(2′-methyl-5′-oxazol-2-yl-biphenyl-4-yl)-thioacetamide], 50 to 100 nM.
`O=C(Nc1ccc(-c2cc(C(F)(F)F)ccc2Cl)cc1)C1CC1` [Compound 125, N-(2′-chloro-5′-(trifluoromethyl)biphenyl-4-yl)cyclopropanecarboxamide] displayed an IC50 of 100 to 500 nM.
Under `O=C(Nc1ccc(-c2cc(C(F)(F)F)ccc2Cl)cc1)C1CCCN1` (centres unmarked) [Compound 126, N-(2′-chloro-5′-(trifluoromethyl)biphenyl-4-yl)pyrrolidine-2-carboxamide] stands greater than 1000 nM.
As for `O=C(Nc1ccc(-c2cc(C(F)(F)F)ccc2Cl)cc1)C1CC=CCC1` (centres unmarked) [Compound 127, N-(2′-chloro-5′-(trifluoromethyl)biphenyl-4-yl)cyclohex-3-enecarboxamide], the figure is 50 to 100 nM; as for `CC1CCCCC1C(=O)Nc1ccc(-c2cc(C(F)(F)F)ccc2Cl)cc1` (centres unmarked) [Compound 128, N-(2′-chloro-5′-(trifluoromethyl)biphenyl-4-yl)-2-methylcyclohexanecarboxamide], 100 to 500 nM; as for `O=C(Nc1ccc(-c2cc(C(F)(F)F)ccc2Cl)cc1)C1CCNCC1` [Compound 129, N-(2′-chloro-5′-(trifluoromethyl)biphenyl-4-yl)piperidine-4-carboxamide], greater than 1000 nM.
Under `O=C(Nc1ccc(-c2cc(C(F)(F)F)ccc2Cl)cc1)C1CC2CCC1C2` (centres unmarked) [Compound 130, N-(2′-chloro-5′-(trifluoromethyl)biphenyl-4-yl)bicyclo[2.2.1]heptane-2-carboxamide] stands 100 to 500 nM.
Compound `O=C(Nc1ccc(-c2cc(C(F)(F)F)ccc2Cl)cc1)C1CC2C=CC1C2` (centres unmarked) [Compound 132, N-(2′-chloro-5′-(trifluoromethyl)biphenyl-4-yl)bicyclo[2.2.1]hept-5-ene-2-carboxamide] had an IC50 greater than 500 nM.
Under `CN1CCC(C(=O)Nc2ccc(-c3cc(C(F)(F)F)ccc3Cl)cc2)CC1` [Compound 133, N-(2′-chloro-5′-(trifluoromethyl)biphenyl-4-yl)-1-methylpiperidine-4-carboxamide] stands greater than 1000 nM.
Under `CN1CCCC1C(=O)Nc1ccc(-c2cc(C(F)(F)F)ccc2Cl)cc1` (centres unmarked) [Compound 134, N-(2′-chloro-5′-(trifluoromethyl)biphenyl-4-yl)-1-methylpyrrolidine-2-carboxamide] stands greater than 1000 nM; under `CCCCNCc1ccc(-c2cc(-c3ncco3)ccc2C)cc1` [Compound 135, N-((2′-methyl-5′-(oxazol-2-yl)biphenyl-4-yl)methyl)butan-1-amine], greater than 1000 nM.
As for `C=CCNCc1ccc(-c2cc(-c3ncco3)ccc2C)cc1` [Compound 136, N-((2′-methyl-5′-(oxazol-2-yl)biphenyl-4-yl)methyl)prop-2-en-1-amine], the figure is greater than 1000 nM.
In the case of `CCCNCc1ccc(-c2cc(-c3ncco3)ccc2C)cc1` [Compound 137, N-((2′-methyl-5′-(oxazol-2-yl)biphenyl-4-yl)methyl)propan-1-amine], the half-maximal inhibitory concentration (IC50) is greater than 1000 nM.
Regarding `CCCCNc1ccc(-c2cc3c(cc2C)OCO3)cc1` [Compound 141, N-butyl-4-(6-methylbenzo[d][1,3]dioxol-5-yl)aniline], the IC50 lay in the range of 100 to 500 nM.
Under `CCCCNc1ccc(-c2cc(C(=O)OC)ccc2C)cc1` [Compound 142, methyl 4′-(butylamino)-6-methylbiphenyl-3-carboxylate] stands 100 to 500 nM; under `Cc1ccc(-c2ncco2)cc1-c1ccc(NCC(C)C)cc1` [Compound 144, N-isobutyl-2′-methyl-5′-(oxazol-2-yl)biphenyl-4-amine], 100 to 500 nM; under `Cc1ccc(-c2ncco2)cc1-c1ccc(NCCO)cc1` [Compound 145, 2-(2′-methyl-5′-(oxazol-2-yl)biphenyl-4-ylamino)ethanol], greater than 1000 nM.
As for `Cc1ccc(-c2ncco2)cc1-c1ccc(NC(=O)N2CCN(C)CC2)cc1` [Compound 146, 4-Methyl-piperazine-1-carboxylic acid (2′-methyl-5′-oxazol-2-yl-biphenyl-4-yl)-amide], the figure is greater than 1000 nM.
Under `CCOC(=O)CNc1ccc(-c2cc(-c3ncco3)ccc2C)cc1` [Compound 147, ethyl 2-(2′-methyl-5′-(oxazol-2-yl)biphenyl-4-ylamino)acetate] stands greater than 1000 nM.
